The results in this text go back to US8592435B2, “Nitrogen-containing six-membered aromatic ring derivatives and pharmaceutical products containing the same” (Daiichi Sankyo Company, Limited, priority 2007, dated 2013).

For test [1], the system named is hippocampal neurons. Description: Test Example 1: ability to promote axonal outgrowth. The test is classed as cell-based, Wistar rats. The conditions noted are these: for activity at 3 µM: Compound Conc. = 3 μM. How it is done:
According to the method of M. P. Mattson [M. P. Mattson, Brain Res. Rev., 13, 179, (1988)], the hippocampal region was isolated from 18-day embryos of female Wistar rats and the neurons were dispersed using the papain dissociation system. Hippocampal neuron were suspended in 5% Nu-serum+B27 supplement+Neurobasal medium at 5×10^4 cells/well/2 mL. 2 mL of the cell suspension were inoculated on a poly-D-lysine-coated 36φ dish and the neuron were incubated at 37° C. in a 5% CO2 incubator.
On day 3 of the incubation period, 1 mL of the culture medium was replaced with 1 mL of 5% Nu-serum+B27 supplement+Neurobasal medium containing 2 mM AraC. Each test compound was added to the culture on day 3 and day 7 of the incubation period. On day 9, cells were fixed in a 4% paraformaldehyde solution. The nerve axons of the fixed cells were stained with the Rabbit anti-growth-associated protein-43 polyclonal antibody and the stained cells were quantified using Kurabo neuron outgrowth-quantication software.
The ability (%) of each test compound to promote axonal outgrowth was calculated from the following equation: The ability to promote axonal outgrowth (%)=[(measurement with a compound of interest)/(measurement of control)]×100
Example Compounds shown in Table 25 were used as test compounds and were each added at concentrations of 3 μM and 0.3 μM.
Since bFGF gives a measurement of about 120 in this test, 120 is used as the threshold to determine whether a given compound has the ability to promote axonal outgrowth

Test [2] concerns spinal cord neurons. Description: Test Example 3: ability to promote the neurite outgrowth of spinal cord neurons. Type of test: cell-based, Wistar rats. To be noted: for Promotion of spinal cord neurite outgrowth (%): Compound Conc. = 0.1 μM, % of control, day 3. On the procedure:
According to the method of Martin G. Hanson Jr. [J. Neurosci., 1998 Sep. 15; 18(18): 7361-71], the spinal cord region was isolated from 15-day embryos of female Wistar rats and the cells were dispersed using the papain dissociation system. Neurons were collected using 6.8% Metrizamide density gradient and were suspended in 2% FBS+Leibovitz's −15 medium so that the density of the cells will be 2×10^3 cells/well/200 μL. 200 μL of the cell suspension was inoculated on a poly-D-lysine/laminin-coated 96 well plate and the plate was incubated in an incubator at 37° C. Test compounds were added 1 hour after seeding of cells.
On day 3 of the incubation period, neurons were stained with Calcein-AM and the lengths of neurites were determined using IN Cell Analyzer (GE Healthcare Bioscience).
The ability (%) of each test compound to promote neurite outgrowth was calculated from the following equation: The ability to promote neurite outgrowth (%)=[(measurement with a compound of interest)/(measurement of control)]×100
Example Compounds 65, 71, 74, 92, 130 and 135 were used as test compounds and were each added at a concentration of 0.1 μM.
The results are shown in Table 27. bFGF gives a measurement of about 130 in this test.

The subject of test [3] is mixture of human vascular endothelial cells and fibroblasts. Description: Test Example 2: ability to promote angiogenesis (angiogenesis test kit KZ-1000). The test is classed as cell-based. The conditions noted are these: for activity at 3 µM / activity at 0.3 µM: Homo sapiens, 216 h, lumen length, % of control, day 9, read-out: Promotion of angiogenesis (%); for activity at 3 µM: Compound Conc. = 3 μM; for activity at 0.3 µM: Compound Conc. = 0.3 μM. On the procedure:
Using an angiogenesis test kit containing a mixture of human vascular endothelial cells and fibroblasts [KZ-1000; Kurabo], the ability of test compounds to promote angiogenesis was evaluated. Each test compound was added on days 1, 4, and 7 of the incubation period. On day 9, cells were immunostained with CD31 and photographed. Control cells were cultured under the same conditions, only without the addition of a test compound, and photographed.
The lumen length of the blood vessel was quantified from the obtained images using an angiogenesis-quantification software. The ability (%) of each test compound to promote angiogenesis was calculated from the following equation: The ability to promote angiogenesis (%)=[(measurement with a compound of interest)/(measurement of control)]×100
Example Compounds shown in Table 26 were used as test compounds.
Since bFGF gives a measurement of about 120 in this test, 120 is used as the threshold to determine whether a given compound has the ability to promote angiogenesis.

Test [4] deals with T1, chemokine receptor CCR3 (Homo sapiens, UniProt P51677).
T1 sequence (P51677 1-355): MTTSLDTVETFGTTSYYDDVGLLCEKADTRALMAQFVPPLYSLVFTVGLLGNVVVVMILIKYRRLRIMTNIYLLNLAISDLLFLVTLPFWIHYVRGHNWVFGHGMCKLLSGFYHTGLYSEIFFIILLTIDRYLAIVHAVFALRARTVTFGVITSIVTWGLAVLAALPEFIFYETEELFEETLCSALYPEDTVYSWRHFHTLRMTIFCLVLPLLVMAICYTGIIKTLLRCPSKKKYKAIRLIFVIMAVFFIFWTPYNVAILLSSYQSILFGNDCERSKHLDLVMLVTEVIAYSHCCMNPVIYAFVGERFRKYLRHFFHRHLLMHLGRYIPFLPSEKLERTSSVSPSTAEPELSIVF
Description: Affinity to chemokine receptor CCR3. The test is classed as binding. The conditions noted are these: at a concentration of 10 μM. The text has this:
Although the compounds of the present invention are novel compounds, compounds having a partly similar skeleton are described, for example, in Published Japanese Translation of PCT International Application No. 2003-507456, WO 01/79170 and WO 00/23076.

Test [5] relates to critical limb ischemia model (left femoral artery excised). Nature of the test: Test Example 4: lower limb ischemia (critical limb ischemia) model in mice. To be noted: oral once daily 0.1 or 1.0 mg/kg for 10 days from femoral artery excision, vs Vehicle. The test is classed as in vivo, Balb/c mice. On the procedure: According to the method of Ichiro Masaki [Circ Res. 90; 966-973 (2002)], the left femoral artery of Balb/c mice was excised to establish a model of critical limb ischemia (n=29 to 30).
Test compounds used were Example Compounds 65, 92, 114, 130, 135 and 136, each of which was orally administered once daily at a dose of 0.1 mg/kg or 1.0 mg/kg for 10 days starting from the day of femoral artery excision.
The results are shown in FIGS. 1 to 6 in which FIGS. 1, 2, 3, 4, 5 and 6 show the results of Example Compounds 65, 92, 114, 130, 135 and 136, respectively.
In the figures, a thick solid line indicates a Vehicle group, a thin dotted line indicates a group administered 0.1 mg/kg/day of each compound, and a thin solid line indicates a group administered 1.0 mg/kg/day of each compound.
*: P<0.05, **: P<0.01, ***: P<0.001 vs Vehicle by Wilcoxon's test.

[6] abbreviates: Hippocampal neuron, 216 h, % of control, rat hippocampal neurons, day 9, read-out: Promotion of axonal outgrowth (%).
The mark [7] stands for this setting: reference, concentration not given, used as threshold.

Structures can show the parent of a compound that is named as a salt.

Take `Cc1nc(OCC(=O)N(C)C2CCN(CC3CCCCC3)CC2)nc(C)c1N` [Compound 71, 2-(5-amino-4,6-dimethylpyrimidine-2-yloxy)-N-(1-(cyclohexylmethyl)piperidine-4-yl)-N-methylacetamide]: the results for the activity at 3 µM in test [1] (setting [6]) and in test [3] were 140% and 126%, respectively. Also, the “Promotion of spinal cord neurite outgrowth (%)” value in test [2] was 139%.
The like results for `Cc1nc(OCC(=O)N(C)C2CCN(C(=O)c3ccccc3)CC2)nc(C)c1N` [Compound 74, 2-(5-amino-4,6-dimethylpyrimidine-2-yloxy)-N-(1-benzoylpiperidine-4-yl)-N-methylacetamide] were, in that order, 159%, 136% and 125%.
With `Cc1nc(OCC(=O)N(C)C2CCN(Cc3ccc(F)cc3)CC2)nc(C)c1N` [Compound 85, 2-(5-amino-4,6-dimethylpyrimidine-2-yloxy)-N-(1-(4-fluorobenzyl)piperidine-4-yl)-N-methylacetamide], the activity at 3 µM in test [1] (setting [6]) amounted to 140%; in test [3], 123%. Also, in test [4], the “affinity to chemokine receptor CCR3” value came to 2.4%.
The corresponding values for `Cc1nc(OCC(=O)N(C)C2CCN(Cc3cc(F)c(F)c(F)c3)CC2)nc(C)c1N` [Compound 91, 2-(5-amino-4,6-dimethylpyrimidine-2-yloxy)-N-methyl-N-(1-(3,4,5-trifluorobenzyl)piperidine-4-yl)acetamide] are 150%, 124% and 18%.
For `Cc1nc(=O)n(CC(=O)N(C)C2CCN(Cc3ccccc3)CC2)c(C)c1N` [Compound 97, 2-(5-amino-4,6-dimethyl-2-oxopyrimidine-1(2H)-yl)-N-(1-benzylpiperidine-4-yl)-N-methylacetamide], the values for the activity at 3 µM in test [1] (setting [6]) and in test [3] were 127% and 134%, respectively.
As for `Cc1nc(OC(C)C(=O)N(C)C2CCN(CC3CC3)CC2)nc(C)c1N` (centres unmarked) [Compound 98, 2-(5-amino-4,6-dimethylpyrimidine-2-yloxy)-N-(1-(cyclopropylmethyl)piperidine-4-yl)-N-methylpropanamide], in test [1] (setting [6]), the activity at 3 µM worked out at 130%. In addition, the activity at 0.3 µM in test [3] turned out to be 129%.
The like results for `CNc1c(C)nc(OC(C)C(=O)N(C)C2CCN(Cc3ccccc3)CC2)nc1C` (centres unmarked) [Compound 100, N-(1-benzylpiperidine-4-yl)-2-(4,6-dimethyl-5-(methylamino)pyrimidine-2-yloxy)-N-methylpropanamide] were, in that order, 128% and 116%.
Take `Cc1nc(OCC(=O)NC2CCN(C(=O)c3ccc(F)cc3)CC2)nc(C)c1N` [Compound 102, 2-(5-amino-4,6-dimethylpyrimidine-2-yloxy)-N-(1-(4-fluorobenzoyl)piperidine-4-yl)acetamide]: the activity at 3 µM in test [1] (setting [6]) was 233%. In test [4], the “affinity to chemokine receptor CCR3” value came out at 0.0%.
With `Cc1cnc(Cl)nc1NCC(=O)N(C)C1CCN(Cc2ccccc2)CC1` [Compound 109, N-(1-benzylpiperidine-4-yl)-2-(2-chloro-5-methylpyrimidine-4-ylamino)-N-methylacetamide], the activity at 3 µM in test [1] (setting [6]) was 159%; in test [3] it was 124%. In test [4], the “affinity to chemokine receptor CCR3” value was found to be 16%.
On to `Cc1cnc(N)nc1NCC(=O)N(C)C1CCN(Cc2ccccc2)CC1` [Compound 111, 2-(2-amino-5-methylpyrimidine-4-ylamino)-N-(1-benzylpiperidine-4-yl)-N-methylacetamide maleate], for which the activity at 0.3 µM in test [1] (Hippocampal neuron, 216 h, Compound Conc. = 0.3 μM, % of control, rat hippocampal neurons, day 9, read-out: Promotion of axonal outgrowth (%)) was 118%. For the same compound, the activity at 3 µM in test [3] is 121%.
As to `CN(C(=O)Cn1cc(F)c(N)nc1=O)C1CCN(Cc2ccccc2)CC1` [Compound 114, 2-(4-amino-5-fluoro-2-oxopyrimidine-1(2H)-yl)-N-(1-benzylpiperidine-4-yl)-N-methylacetamide], the activity at 3 µM in test [1] (setting [6]) came to 183%; in test [3] it was 125%. Also, in test [5], the “survival rate of lower limb” value is recorded as “increased survival rate”.
As for `Cc1cc([N+](=O)[O-])cnc1NCC(=O)N(C)C1CCN(Cc2ccccc2)CC1` [Compound 123, N-(1-benzylpiperidine-4-yl)-N-methyl-2-(3-methyl-5-nitropyridine-2-ylamino)acetamide], the activity at 3 µM was 131% in test [1] (setting [6]) and 132% in test [3].
For `CN(C(=O)COc1nccnc1Cl)C1CCN(Cc2ccccc2)CC1` [Compound 128, N-(1-benzylpiperidine-4-yl)-2-(3-chloropyrazine-2-yloxy)-N-methylacetamide hydrochloride], in test [1] (setting [6]), the activity at 3 µM came to 156%. The activity at 0.3 µM in test [3] is 115%.
Turning to `CN(C)c1ccc(OCC(=O)N(C)C2CCN(C(=O)C3CC3)CC2)nn1` [Compound 136, N-(1-(cyclopropanecarbonyl)piperidine-4-yl)-2-(6-(dimethylamino)pyridazine-3-yloxy)-N-methylacetamide], the activity at 3 µM in test [1] (setting [6]) is 133%. In test [3], the activity at 0.3 µM was 110%. The “survival rate of lower limb” value in test [5] was “increased survival rate”.
Take “bFGF: basic fibroblast growth factor (bFGF), a growth factor known to promote angiogenesis; reference that sets the threshold”: the “Promotion of axonal outgrowth, measurement of bFGF in this test” value in test [1] (setting [7]) is given as “about 120%”. The “Promotion of spinal cord neurite outgrowth, measurement of bFGF in this test” value in test [2] (reference, concentration not given) is “about 130%”. Further, the “Promotion of angiogenesis, measurement of bFGF in this test” value in test [3] (setting [7]) is “about 120%”.
